What was measured:
SHR [1] = experiment: Hepatic fibrosis in SHR on high fat diet; assay type: in vivo, rat; conditions: 10% ethanol drinking solution, 500 pmol/kg/min for 6 weeks, compared to controls, FIG. 17
Protocol: Fourteen week old SHR on a high fat diet (Glen Forrest Stockfeeders) were randomly assigned to test compound drinking solution (500 pmol/kg/min test compound in 10% ethanol in deionised distilled water) or control drinking solution (10% ethanol in deionised distilled water). […] To quantitate tissue fibrosis and/or fat content, tissue slices≤3 mm thick were fixed in 10% buffered formalin for 24 hours, processed and embedded in paraffin. Three micron transverse sections were stained using Masson's trichrome stain. A minimum of 20 random fields at magnification×20 from transverse sections (5 at each of 2 levels) were digitized and the degree of fibrosis determined as a percent of field area of each digitized image using Image-Pro Plus V.7 (Media Cybernetics, Bethesda, Md., USA) then averaged to determine the level of fibrosis and/or fat content for each rat.

SHR [2] = experiment: Masson's tri-chrome stained sections of portal tracts (liver tissue architecture); assay type: in vivo, rat; conditions: treated rats versus control, FIG. 18
Description: (§1) Fourteen week old SHR on a high fat diet (Glen Forrest Stockfeeders) were randomly assigned to test compound drinking solution (500 pmol/kg/min test compound in 10% ethanol in deionised distilled water) or control drinking solution (10% ethanol in deionised distilled water). After 4 weeks, rats were anaesthetised and blood samples were taken for analysis of plasma aminotransferase (AST) levels and livers were harvested. To quantitate tissue fibrosis and/or fat content, tissue slices≤3 mm thick were fixed in 10% buffered formalin for 24 hours, processed and embedded in paraffin. Three micron transverse sections were stained using Masson's trichrome stain. A minimum of 20 random fields at magnification×20 from transverse sections (5 at each of 2 levels) were digitized and the degree of fibrosis determined as a percent of field area of each digitized image using Image-Pro Plus V.7 (Media Cybernetics, Bethesda, Md., USA) then averaged to determine the level of fibrosis and/or fat content for each rat.

[3] = test system: bovine aortic endothelial cells; experiment: xCELLigence cellular impedance (cell index) in bovine aortic endothelial cells; assay type: cell-based; conditions: 62.5 μM, 125 μM or 250 μM, measured for 3 hours, FIG. 13
Description: The xCELLigence SP system (Roche) was used to measure changes in cellular impedance (cell index) following the treatment of bovine aortic endothelial cells (European Collection of Cell Cultures) with test compound. In this in vitro cell based experimental system a negative impedance profile correlates with blood pressure reduction in rats—a decrease in impedance is associated with vasodilatation and an increase in impedance is associated with vasoconstriction (Stallaert W, Dorn J F, van der Westhuizen E, Audet M & Bouvier M. Impedance responses reveal β-adrenergic signaling […] and allow classification of ligands with distinct signalling profiles PLoS ONE 2012; 7(1):e29420, doi:10.1371/journal.pone.0029420).
Briefly, 50 μl of cell culture medium (DMEM low glucose supplemented with 15% fetal bovine serum at 37° C.) was added to each well of an E-Plate 96 (Roche), and the background impedance in each well was measured. 50 μl of bovine aortic endothelial cell suspension (10,000 cells/well) was then added to the appropriate wells of the E-Plate 96. Cell index was monitored for each well of the E-Plate 96 in RTCA SP Station within the cell culture incubator. After overnight incubation for 16-20 hours at 5% CO2 and 95% humidity, 100 μl of test compound solution (test compounds were prepared in DMSO and diluted with cell culture medium to a concentration of 62.5 μM, 125 μM or 250 μM of test compound with a final DMSO concentration of 0.25%) was added to the appropriate wells of the E-Plate 96 and cell index values were measured immediately following compound treatment every 20 seconds for 3 hours. Cell index value is baseline-corrected by subtracting the cell index of vehicle-treated cells and normalized by dividing by the cell index at the time point immediately before compound addition. Baseline normalized cell index as a function of time is plotted using Roche RTCA software.

SHR [4] = experiment: Fat accumulation in the liver in SHR on high fat diet; assay type: in vivo, rat; conditions: 500 pmol/kg/min for 4 weeks, compared to 18 week controls, FIG. 20, p<0.05
Description: as §1

SHR [5] = experiment: Plasma aminotransferase (AST) levels in SHR on high fat diet; assay type: in vivo, rat; conditions: 10% ethanol drinking solution, compared to controls, FIG. 21, p<0.025
Protocol: Fourteen week old SHR on a high fat diet (Glen Forrest Stockfeeders) were randomly assigned to test compound drinking solution (500 pmol/kg/min test compound in 10% ethanol in deionised distilled water) or control drinking solution (10% ethanol in deionised distilled water). After 4 weeks, rats were anaesthetised and blood samples were taken for analysis of plasma aminotransferase (AST) levels and livers were harvested. Plasma AST levels were measured using a RefloVET Plus (Roche) machine using consumable strips with magnetic assay identifiers recognized by the machine. A calibration standard was used in the machine prior to each use and the device was operated according to the manufacturer's instructions. Results are presented as international units per liter (IU/L).

[6] = test system: rat (NRK-52E) renal proximal tubule cells; experiment: Cisplatin induced cell death, rat renal proximal tubule cells (WST-8/CCK-8); assay type: cell-based; conditions: rat renal proximal tubular cells; cisplatin 12.5 μg/ml; 32 μM or 63 μM of compound; 24 hours; FIG. 14
Protocol: (§2) Human (HPCT-wt-05) and rat (NRK-52E) renal proximal tubule cells grown in (Keratinocyte Medium II+Keratinocyte Growth Supplement+5 ng/ml human recombinant epidermal growth factor+5% FBS+2 mM glutamine or DMEM+10% FBS+1% NEAA+2 mM glutamine respectively) were placed in 96 well plates at 10,000 cells/well and incubated at 37° C. with 5% CO2 overnight. Test compounds at concentrations of 32 μM or 63 μM were incubated with human or rat renal proximal tubule cells for 2 hours at 37° C. and 5% CO2. Cis-diamminedichloroplatinum[…] (cisplatin) was then added at a concentration of 5 μg/ml for human cells and 12.5 μg/ml for rat cells. Each cell population was then incubated for 24 hours at 37° C. with 5% CO2. Test compound A32 was maintained at its original concentrations. To assay the cytotoxic effects of cisplatin on the human and rat renal proximal tubule cells a highly water-soluble tetrazolium salt, WST-8, which is reduced by dehydrogenases in cells to produce formazan, a water-soluble, yellow-coloured indicator dye was used following the manufacturer's instructions (specifically the Cell Count Kit-8 (CCK-8) assay from Sigma). Plate absorbance of the WST-8 (CCK-8) reagent was then measured at 450 nm using a Thermo Scientific Multiskan EX plate reader.

[7] = test system: Human (HPCT-wt-05) renal proximal tubule cells; experiment: Cisplatin induced cell death, human renal proximal tubule cells (WST-8/CCK-8); assay type: cell-based; conditions: human renal proximal tubular cells; cisplatin 5 μg/ml; 32 μM or 63 μM of compound; 24 hours; FIG. 14
Protocol: as §2

SHR [8] = experiment: Myocardial fibrosis in SHR on 2.2% salt diet; assay type: in vivo, rat; conditions: 5% ethanol drinking solution, 500 pmol/kg/min for 4 weeks, compared to 14 and 18 week controls, FIG. 16
Description: (§3) Fourteen week old SHR on a 2.2% salt diet (Glen Forrest Stockfeeders) were randomly assigned to zero time control, test compound treatment (500 pmol/kg/min) in the drinking solution or control drinking solution (5% ethanol in deionised distilled water (n=5 each group). The rats assigned to zero time control group (14 weeks old rats) were anaesthetised and had their kidneys and heart harvested while rats assigned to control and test compound treatment were weighed twice weekly and had their drinking solution intake monitored to allow adjustment of the test compound concentration in the drinking solution to maintain a constant dose over the 4-week study period (18 weeks old rats). At the completion of the study period, rats were anaesthetised and had their kidneys and heart harvested. To quantitate tissue fibrosis and/or fat content, tissue slices≤3 mm thick were fixed in 10% buffered formalin for 24 hours, processed and embedded in paraffin. Three micron transverse sections were stained using Masson's trichrome stain. A minimum of 20 random fields at magnification×20 from transverse sections (5 at each of 2 levels) were digitized and the degree of fibrosis determined as a percent of field area of each digitized image using Image-Pro Plus V.7 (Media Cybernetics, Bethesda, Md., USA) then averaged to determine the level of fibrosis and/or fat content for each rat.

SHR [9] = experiment: Interstitial fibrosis in the kidney in SHR on 2.2% salt diet; assay type: in vivo, rat; conditions: 5% ethanol drinking solution, 500 pmol/kg/min for 4 weeks, compared to 18 week controls, FIG. 15
Description: as §3

SHR [10] = experiment: Masson's tri-chrome stained sections of heart tissue (tissue architecture); assay type: in vivo, rat; conditions: treated rats versus control, FIG. 19
Description: as §3

Structure (SMILES) | Hepatic fibrosis (SHR [1]) | Tissue architecture in portal tract sections (SHR [2]) | Cell impedance response (baseline normalized cell index) [3] | other results
NC(CCc1cc(-c2ccccc2)ccc1-c1cccc(O)c1)C(F)(F)F (stereo not drawn) [A6, 2′-(3-Amino-4,4,4-trifluorobutyl)-1,1′:4′,1″-terphenyl-3-ol] | decreased | normal tissue architecture has been restored | Negative impedance responses | –
O=C1c2ccccc2C(=O)N1OCCc1cc(-c2ccccc2)ccc1-c1cccc(O)c1 [A56g, 2-[2-(3-Hydroxy-1,1′:4′,1″-terphenyl-2′-yl)ethoxy]-1H-isoindole-1,3(2H)-dione] | – | – | Negative impedance responses | –
NOCCc1cc(-c2ccccc2)ccc1-c1cccc(O)c1 [A56, 2′-[2-(Aminooxy)ethyl]-1,1′:4′,1″-terphenyl-3-ol] | – | normal tissue architecture has been restored | Negative impedance responses | Fat in the liver (SHR [4]): reduced
O=C(O)Cc1cc(-c2ccccc2)ccc1-c1cccc(O)c1 [A56k, (3-Hydroxy-1,1′:4′,1″-terphenyl-2′-yl)acetic acid] | – | – | Negative impedance responses | –
OCCc1cc(-c2ccccc2)ccc1-c1cccc(O)c1 [A56f, 2′-(2-Hydroxyethyl)-1,1′:4′,1″-terphenyl-3-ol] | decreased | normal tissue architecture has been restored | Negative impedance responses | Plasma AST levels (SHR [5]): decreased
O=C1NC(=O)C(Cc2cc(-c3ccccc3)ccc2-c2cccc(O)c2)N1 (stereo not drawn) [A32, 5-((3-Hydroxy-[1,1′:4′,1″-terphenyl]-2′-yl)methyl)imidazolidine-2,4-dione] | decreased | normal tissue architecture has been restored | Negative impedance responses | Plasma AST levels (SHR [5]): decreased; Fat in the liver (SHR [4]): reduced; Cisplatin induced cell death [6]: decreased; Cisplatin induced cell death [7]: decreased; Myocardial fibrosis (SHR [8]): decreased; Fibrosis in the kidney (SHR [9]): decreased; Fibrous tissue and tissue architecture in heart sections (SHR [10]): minimal fibrous tissue is present and normal tissue architecture has been restored
O=C1CC(Cc2cc(-c3ccccc3)ccc2-c2cccc(O)c2)C(=O)N1 (stereo not drawn) [A30, 3-[(3-Hydroxy-1,1′:4′,1″-terphenyl-2′-yl)methyl]pyrrolidine-2,5-dione] | – | – | Negative impedance responses | –
O=C1NCCC1Cc1cc(-c2ccccc2)ccc1-c1cccc(O)c1 (stereo not drawn) [A26] | – | – | Negative impedance responses | –
O=C1NCC/C1=C\c1cc(-c2ccccc2)ccc1-c1cccc(O)c1 [A27] | decreased | normal tissue architecture has been restored | Negative impedance responses | Fat in the liver (SHR [4]): reduced
OCc1cc(-c2ccccc2)ccc1-c1cccc(O)c1 [A81] | – | – | Negative impedance responses | –
Nc1nocc1Cc1cc(-c2ccccc2)ccc1-c1cccc(O)c1 [A35] | – | – | Negative impedance responses | –

Source: patent US10035775B2, “Compositions for the treatment of fibrosis and fibrosis-related conditions” (VECTUS BIOSYSTEMS LIMITED, priority 2015, dated 2018)
